Results on 20 molecules are retold here after PMC8895403, “A Strategy to Select Macrocyclic Peptides Featuring Asymmetric Molecular Scaffolds as Cyclization Units by Phage Display” (Journal of the American Chemical Society, 2022).

This data set is described as follows: Head-to-side-chain cyclisation: Cys S-alkylation with bifunctional aldehyde linker 1-4 (benzyl bromide or bromoacetamide), then intramolecular reductive amination of the N-terminal amine with NaBH3CN (one pot, crude peptides). Conditions: the molecule shown is the open-chain precursor, 100 mM MOPS pH 6.5 / about 20% MeCN, TCEP, 0.5 mM, 4.0 °C, 24.0 h, 2 steps, scale: 1 = smooth/efficient conversion to macrocycle as major UPLC-MS species, <1 = partial, mixture.

Take `CC(C)[C@H](NC(=O)[C@H](C)N)C(=O)N[C@@H](CC(N)=O)C(=O)N[C@@H](CCC(=O)O)C(=O)N[C@@H](CCCCN)C(=O)N[C@@H](Cc1c[nH]cn1)C(=O)N[C@@H](Cc1ccc(O)cc1)C(=O)N[C@@H](CSCc1ccc(C=O)cc1)C(=O)N[C@@H](Cc1c[nH]c2ccccc12)C(=O)N[C@@H](C)C(N)=O`: where the note is “31-membered ring”, the ring closure, product found was 1.
On to `CC(C)[C@H](NC(=O)[C@H](C)N)C(=O)N[C@@H](CO)C(=O)N[C@@H](CO)C(=O)NCC(=O)NCC(=O)N[C@@H](CO)C(=O)NCC(=O)N[C@@H](CSCC(=O)Nc1ccc2cc(C=O)ccc2c1)C(=O)N[C@@H](Cc1c[nH]c2ccccc12)C(=O)N[C@@H](C)C(N)=O`, for which, for the setting “38-membered ring”, the ring closure, product found came to 1.
On to `CC(C)[C@H](NC(=O)[C@H](C)N)C(=O)N[C@@H](CC(N)=O)C(=O)N[C@@H](CCC(=O)O)C(=O)N[C@@H](CCCCN)C(=O)N[C@@H](Cc1c[nH]cn1)C(=O)N[C@@H](Cc1ccc(O)cc1)C(=O)N[C@@H](CSCC(=O)Nc1ccc2cc(C=O)ccc2c1)C(=O)N[C@@H](Cc1c[nH]c2ccccc12)C(=O)N[C@@H](C)C(N)=O`, for which the ring closure, product found (35-membered ring) turned out to be 1.
For the molecule `CC(C)[C@H](NC(=O)[C@H](C)N)C(=O)N[C@@H](CO)C(=O)N[C@@H](CO)C(=O)NCC(=O)NCC(=O)N[C@@H](CSCC(=O)Nc1ccc2cc(C=O)ccc2c1)C(=O)N[C@@H](Cc1c[nH]c2ccccc12)C(=O)N[C@@H](C)C(N)=O`, where the note is “32-membered ring”, the ring closure, product found turned out to be 1.
Take `COc1ccc(C=O)cc1NC(=O)CSC[C@H](NC(=O)CNC(=O)CNC(=O)[C@H](CO)NC(=O)[C@H](CO)NC(=O)[C@@H](NC(=O)[C@H](CCCCN)NC(C)=O)C(C)C)C(=O)N[C@@H](Cc1c[nH]c2ccccc12)C(=O)N[C@@H](C)C(N)=O`: under “33-membered ring”, the ring closure, product found is less than 1.
As for `CC(C)[C@H](NC(=O)[C@H](C)N)C(=O)N[C@@H](CO)C(=O)N[C@@H](CO)C(=O)NCC(=O)NCC(=O)N[C@@H](CSCc1ccc(C=O)cc1)C(=O)N[C@@H](Cc1c[nH]c2ccccc12)C(=O)N[C@@H](C)C(N)=O` [H-Ala-Val-Ser-Ser-Gly-Gly-Cys(CH2-C6H4-4-CHO)-Trp-Ala-NH2], the ring closure, product found (28-membered ring) was found to be 1.
For the molecule `CC(=O)N[C@@H](CCCCN)C(=O)N[C@H](C(=O)N[C@@H](CO)C(=O)N[C@@H](CO)C(=O)NCC(=O)NCC(=O)N[C@@H](CSCC(=O)Nc1ccc2cc(C=O)ccc2c1)C(=O)N[C@@H](Cc1c[nH]c2ccccc12)C(=O)N[C@@H](C)C(N)=O)C(C)C`, the ring closure, product found (36-membered ring) is less than 1.
As for `COc1ccc(C=O)cc1NC(=O)CSC[C@H](NC(=O)CNC(=O)CNC(=O)[C@H](CO)NC(=O)[C@H](CO)NC(=O)[C@@H](NC(=O)[C@@H](N)CCCCN)C(C)C)C(=O)N[C@@H](Cc1c[nH]c2ccccc12)C(=O)N[C@@H](C)C(N)=O`, for the setting “29-membered ring”, the ring closure, product found amounted to 1.
For `COc1ccc(C=O)cc1NC(=O)CSC[C@H](NC(=O)CNC(=O)CNC(=O)[C@H](CO)NC(=O)[C@H](CO)NC(=O)[C@@H](NC(=O)[C@H](C)N)C(C)C)C(=O)N[C@@H](Cc1c[nH]c2ccccc12)C(=O)N[C@@H](C)C(N)=O`, the ring closure, product found (29-membered ring) was 1.
For `CC(C)[C@H](NC(=O)[C@@H](N)CCCCN)C(=O)N[C@@H](CO)C(=O)N[C@@H](CO)C(=O)NCC(=O)NCC(=O)N[C@@H](CSCc1ccc(C=O)cc1)C(=O)N[C@@H](Cc1c[nH]c2ccccc12)C(=O)N[C@@H](C)C(N)=O` [H-Lys-Val-Ser-Ser-Gly-Gly-Cys(CH2-C6H4-4-CHO)-Trp-Ala-NH2], the ring closure, product found (28-membered ring) amounted to 1.
Regarding `CC(C)[C@H](NC(=O)[C@H](C)N)C(=O)N[C@@H](CO)C(=O)N[C@@H](CO)C(=O)NCC(=O)NCC(=O)N[C@@H](CSCC(=O)Nc1ccc(C=O)cc1)C(=O)N[C@@H](Cc1c[nH]c2ccccc12)C(=O)N[C@@H](C)C(N)=O`, the ring closure, product found (30-membered ring) was 1.
Turning to `COc1ccc(C=O)cc1NC(=O)CSC[C@H](NC(=O)CNC(=O)[C@H](CO)NC(=O)CNC(=O)CNC(=O)[C@H](CO)NC(=O)[C@H](CO)NC(=O)[C@@H](NC(=O)[C@H](C)N)C(C)C)C(=O)N[C@@H](Cc1c[nH]c2ccccc12)C(=O)N[C@@H](C)C(N)=O`, the ring closure, product found (35-membered ring) stood at 1.
As for `CC(C)[C@H](NC(=O)[C@@H](N)CCCCN)C(=O)N[C@@H](CO)C(=O)N[C@@H](CO)C(=O)NCC(=O)NCC(=O)N[C@@H](CSCC(=O)Nc1ccc(C=O)cc1)C(=O)N[C@@H](Cc1c[nH]c2ccccc12)C(=O)N[C@@H](C)C(N)=O`, the ring closure, product found (30-membered ring) amounted to 1.
On to `CC(=O)N[C@@H](CCCCN)C(=O)N[C@H](C(=O)N[C@@H](CO)C(=O)N[C@@H](CO)C(=O)NCC(=O)NCC(=O)N[C@@H](CSCc1ccc(C=O)cc1)C(=O)N[C@@H](Cc1c[nH]c2ccccc12)C(=O)N[C@@H](C)C(N)=O)C(C)C` [Ac-Lys-Val-Ser-Ser-Gly-Gly-Cys(CH2-C6H4-4-CHO)-Trp-Ala-NH2], for which the ring closure, product found (32-membered ring) is less than 1.
`CC(C)[C@H](NC(=O)[C@H](C)N)C(=O)N[C@@H](CO)C(=O)N[C@@H](CO)C(=O)NCC(=O)NCC(=O)N[C@@H](CO)C(=O)NCC(=O)N[C@@H](CSCC(=O)Nc1ccc(C=O)cc1)C(=O)N[C@@H](Cc1c[nH]c2ccccc12)C(=O)N[C@@H](C)C(N)=O`: where the note is “36-membered ring”, the ring closure, product found stood at 1.
As for `CC(C)[C@H](NC(=O)[C@H](C)N)C(=O)N[C@@H](CC(N)=O)C(=O)N[C@@H](CCC(=O)O)C(=O)N[C@@H](CCCCN)C(=O)N[C@@H](Cc1c[nH]cn1)C(=O)N[C@@H](Cc1ccc(O)cc1)C(=O)N[C@@H](CSCC(=O)Nc1ccc(C=O)cc1)C(=O)N[C@@H](Cc1c[nH]c2ccccc12)C(=O)N[C@@H](C)C(N)=O`, the ring closure, product found (33-membered ring) stood at 1.
Turning to `CC(C)[C@H](NC(=O)[C@H](C)N)C(=O)N[C@@H](CO)C(=O)N[C@@H](CO)C(=O)NCC(=O)NCC(=O)N[C@@H](CO)C(=O)NCC(=O)N[C@@H](CSCc1ccc(C=O)cc1)C(=O)N[C@@H](Cc1c[nH]c2ccccc12)C(=O)N[C@@H](C)C(N)=O`, the ring closure, product found (34-membered ring) turned out to be 1.
With `CC(C)[C@H](NC(=O)[C@@H](N)CCCCN)C(=O)N[C@@H](CO)C(=O)N[C@@H](CO)C(=O)NCC(=O)NCC(=O)N[C@@H](CSCC(=O)Nc1ccc2cc(C=O)ccc2c1)C(=O)N[C@@H](Cc1c[nH]c2ccccc12)C(=O)N[C@@H](C)C(N)=O`, the ring closure, product found (32-membered ring) stood at 1.
Turning to `CC(=O)N[C@@H](CCCCN)C(=O)N[C@H](C(=O)N[C@@H](CO)C(=O)N[C@@H](CO)C(=O)NCC(=O)NCC(=O)N[C@@H](CSCC(=O)Nc1ccc(C=O)cc1)C(=O)N[C@@H](Cc1c[nH]c2ccccc12)C(=O)N[C@@H](C)C(N)=O)C(C)C`, under “34-membered ring”, the ring closure, product found is less than 1.
With `COc1ccc(C=O)cc1NC(=O)CSC[C@H](NC(=O)[C@H](Cc1ccc(O)cc1)NC(=O)[C@H](Cc1c[nH]cn1)NC(=O)[C@H](CCCCN)NC(=O)[C@H](CCC(=O)O)NC(=O)[C@H](CC(N)=O)NC(=O)[C@@H](NC(=O)[C@H](C)N)C(C)C)C(=O)N[C@@H](Cc1c[nH]c2ccccc12)C(=O)N[C@@H](C)C(N)=O`, the ring closure, product found (32-membered ring) turned out to be 1.
